Experimental data as given in PubChem BioAssay (NCI).
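Following 48 hours of exposure in 96-well plates, responses at five concentrations were used to interpolate endpoints linearly. TGI is the concentration that stops growth completely.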

Tests used:
Assay in all cases: DTP human tumour cell line panel, 48 h
ACHN renal = system: ACHN renal
MDA-MB-435 = system: MDA-MB-435
RXF 393 renal = system: RXF 393 renal
MOLT-4 leukemia = system: MOLT-4 leukemia
SF-268 CNS = system: SF-268 CNS
786-0 renal = system: 786-0 renal
TK-10 renal = system: TK-10 renal
NCI-H522 lung = system: NCI-H522 lung
HCC-2998 colon = system: HCC-2998 colon
SK-OV-3 ovarian = system: SK-OV-3 ovarian
SR leukemia = system: SR leukemia
OVCAR-8 ovarian = system: OVCAR-8 ovarian
MCF7 breast = system: MCF7 breast
OVCAR-3 ovarian = system: OVCAR-3 ovarian
PC-3 prostate = system: PC-3 prostate
SK-MEL-2 melanoma = system: SK-MEL-2 melanoma
RPMI-8226 leukemia = system: RPMI-8226 leukemia
SN12C renal = system: SN12C renal
SW-620 colon = system: SW-620 colon
UACC-257 melanoma = system: UACC-257 melanoma
K-562 leukemia = system: K-562 leukemia
COLO 205 colon = system: COLO 205 colon
NCI-H226 lung = system: NCI-H226 lung
HOP-92 NSCLC = system: HOP-92 NSCLC
NCI-H23 lung = system: NCI-H23 lung
SK-MEL-5 melanoma = system: SK-MEL-5 melanoma
OVCAR-4 ovarian = system: OVCAR-4 ovarian
M14 melanoma = system: M14 melanoma
SK-MEL-28 melanoma = system: SK-MEL-28 melanoma
MALME-3M melanoma = system: MALME-3M melanoma
SF-539 CNS = system: SF-539 CNS
UO-31 renal = system: UO-31 renal
KM12 colon = system: KM12 colon
UACC-62 melanoma = system: UACC-62 melanoma
CAKI-1 renal = system: CAKI-1 renal
U251 CNS = system: U251 CNS
MDA-N = system: MDA-N
OVCAR-5 ovarian = system: OVCAR-5 ovarian
SF-295 CNS = system: SF-295 CNS
A549 NSCLC = system: A549 NSCLC
NCI/ADR-RES ovarian = system: NCI/ADR-RES ovarian
HCT-116 colon = system: HCT-116 colon
IGROV1 ovarian = system: IGROV1 ovarian
HCT-15 colon = system: HCT-15 colon
NCI-H460 lung = system: NCI-H460 lung
SNB-75 CNS = system: SNB-75 CNS
CCRF-CEM leukemia = system: CCRF-CEM leukemia
HT29 colon = system: HT29 colon
DU-145 prostate = system: DU-145 prostate
T-47D breast = system: T-47D breast
HOP-62 NSCLC = system: HOP-62 NSCLC
BT-549 breast = system: BT-549 breast
HS 578T breast = system: HS 578T breast
MDA-MB-231 breast = system: MDA-MB-231 breast
A498 renal = system: A498 renal
LOX IMVI melanoma = system: LOX IMVI melanoma
HL-60(TB) leukemia = system: HL-60(TB) leukemia
SNB-19 CNS = system: SNB-19 CNS
EKVX NSCLC = system: EKVX NSCLC

## COc1ccc(C2CC(c3ccc4ccccc4c3O)=NN2)cc1OC (configuration not stated)
ACHN renal
  TGI: > 100 µM
MDA-MB-435
  TGI: > 100 µM
RXF 393 renal
  TGI: > 100 µM
MOLT-4 leukemia
  TGI: 65.4 µM
SF-268 CNS
  TGI: > 100 µM
786-0 renal
  TGI: > 100 µM
TK-10 renal
  TGI: > 100 µM
NCI-H522 lung
  TGI: > 100 µM
HCC-2998 colon
  TGI: > 100 µM
SK-OV-3 ovarian
  TGI: > 100 µM
SR leukemia
  TGI: 46.3 µM
OVCAR-8 ovarian
  TGI: > 100 µM
MCF7 breast
  TGI: > 100 µM
OVCAR-3 ovarian
  TGI: > 100 µM
PC-3 prostate
  TGI: > 100 µM
SK-MEL-2 melanoma
  TGI: > 100 µM
RPMI-8226 leukemia
  TGI: > 100 µM
SN12C renal
  TGI: > 100 µM
SW-620 colon
  TGI: > 100 µM
UACC-257 melanoma
  TGI: > 100 µM
K-562 leukemia
  TGI: 52.1 µM
COLO 205 colon
  TGI: > 100 µM
NCI-H226 lung
  TGI: > 100 µM
HOP-92 NSCLC
  TGI: > 100 µM
NCI-H23 lung
  TGI: > 100 µM
SK-MEL-5 melanoma
  TGI: > 100 µM
OVCAR-4 ovarian
  TGI: > 100 µM
M14 melanoma
  TGI: > 100 µM
SK-MEL-28 melanoma
  TGI: > 100 µM
MALME-3M melanoma
  TGI: > 100 µM
SF-539 CNS
  TGI: > 100 µM
UO-31 renal
  TGI: > 100 µM
KM12 colon
  TGI: > 100 µM
UACC-62 melanoma
  TGI: > 100 µM
CAKI-1 renal
  TGI: > 100 µM
U251 CNS
  TGI: > 100 µM
MDA-N
  TGI: 60.8 µM
OVCAR-5 ovarian
  TGI: > 100 µM
SF-295 CNS
  TGI: > 100 µM
A549 NSCLC
  TGI: > 100 µM
NCI/ADR-RES ovarian
  TGI: > 100 µM
HCT-116 colon
  TGI: > 100 µM
IGROV1 ovarian
  TGI: > 100 µM
HCT-15 colon
  TGI: > 100 µM
NCI-H460 lung
  TGI: > 100 µM
SNB-75 CNS
  TGI: > 100 µM
CCRF-CEM leukemia
  TGI: 42.6 µM
HT29 colon
  TGI: > 100 µM
DU-145 prostate
  TGI: > 100 µM
T-47D breast
  TGI: > 100 µM
HOP-62 NSCLC
  TGI: > 100 µM
BT-549 breast
  TGI: 74 µM
HS 578T breast
  TGI: > 100 µM
MDA-MB-231 breast
  TGI: 96 µM
A498 renal
  TGI: > 100 µM

## COC(=O)CCC(C)[C@H]1CCC2C3C(C[C@H](OC(C)=O)[C@@]21C)[C@@]1(C)CCC2(C[C@H]1C[C@H]3OC(C)=O)OOC1(CCCCCCC1)OO2 (some centres not stated)
ACHN renal
  TGI: > 100 µM
MDA-MB-435
  TGI: > 100 µM
RXF 393 renal
  TGI: > 100 µM
MOLT-4 leukemia
  TGI: > 100 µM
SF-268 CNS
  TGI: > 100 µM
786-0 renal
  TGI: > 100 µM
TK-10 renal
  TGI: > 100 µM
NCI-H522 lung
  TGI: > 100 µM
SK-OV-3 ovarian
  TGI: > 100 µM
SR leukemia
  TGI: > 100 µM
OVCAR-8 ovarian
  TGI: > 100 µM
MCF7 breast
  TGI: > 100 µM
OVCAR-3 ovarian
  TGI: > 100 µM
PC-3 prostate
  TGI: > 100 µM
SK-MEL-2 melanoma
  TGI: > 100 µM
RPMI-8226 leukemia
  TGI: 6.21 µM
SN12C renal
  TGI: > 100 µM
LOX IMVI melanoma
  TGI: > 100 µM
SW-620 colon
  TGI: > 100 µM
UACC-257 melanoma
  TGI: > 100 µM
K-562 leukemia
  TGI: > 100 µM
COLO 205 colon
  TGI: > 100 µM
NCI-H226 lung
  TGI: 50 µM
HOP-92 NSCLC
  TGI: > 100 µM
NCI-H23 lung
  TGI: > 100 µM
SK-MEL-5 melanoma
  TGI: > 100 µM
HL-60(TB) leukemia
  TGI: > 100 µM
OVCAR-4 ovarian
  TGI: > 100 µM
M14 melanoma
  TGI: > 100 µM
SK-MEL-28 melanoma
  TGI: > 100 µM
MALME-3M melanoma
  TGI: > 100 µM
SF-539 CNS
  TGI: > 100 µM
UO-31 renal
  TGI: 28.8 µM
KM12 colon
  TGI: > 100 µM
CAKI-1 renal
  TGI: > 100 µM
SNB-19 CNS
  TGI: > 100 µM
U251 CNS
  TGI: > 100 µM
MDA-N
  TGI: > 100 µM
OVCAR-5 ovarian
  TGI: > 100 µM
SF-295 CNS
  TGI: > 100 µM
A549 NSCLC
  TGI: > 100 µM
NCI/ADR-RES ovarian
  TGI: > 100 µM
HCT-116 colon
  TGI: > 100 µM
IGROV1 ovarian
  TGI: > 100 µM
HCT-15 colon
  TGI: > 100 µM
NCI-H460 lung
  TGI: > 100 µM
SNB-75 CNS
  TGI: > 100 µM
CCRF-CEM leukemia
  TGI: > 100 µM
HT29 colon
  TGI: > 100 µM
DU-145 prostate
  TGI: > 100 µM
T-47D breast
  TGI: > 100 µM
HOP-62 NSCLC
  TGI: 52.7 µM
BT-549 breast
  TGI: > 100 µM
EKVX NSCLC
  TGI: > 100 µM
HS 578T breast
  TGI: > 100 µM
MDA-MB-231 breast
  TGI: > 100 µM
A498 renal
  TGI: > 100 µM
